Data on 5 molecules can be found in publication PMC6099886 (Proceedings of the National Academy of Sciences of the …, 2018).

For series [1] the following is noted: cited from earlier work.
Series [2] addresses T1, DDR2-His (Homo sapiens, UniProt Q16832).
T1 sequence (Q16832 22-398): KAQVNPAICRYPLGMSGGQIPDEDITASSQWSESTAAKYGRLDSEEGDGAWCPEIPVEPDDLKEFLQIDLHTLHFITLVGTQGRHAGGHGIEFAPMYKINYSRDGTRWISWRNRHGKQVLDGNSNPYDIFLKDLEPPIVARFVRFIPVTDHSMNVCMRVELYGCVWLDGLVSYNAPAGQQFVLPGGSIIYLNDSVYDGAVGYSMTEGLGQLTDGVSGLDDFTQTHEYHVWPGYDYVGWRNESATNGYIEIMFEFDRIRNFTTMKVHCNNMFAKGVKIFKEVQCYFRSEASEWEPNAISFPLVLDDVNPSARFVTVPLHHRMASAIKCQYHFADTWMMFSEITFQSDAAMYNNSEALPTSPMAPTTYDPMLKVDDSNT
Kind of series: Solid-phase binding assay of DDR2-His. As to conditions: 25 nM DDR2-His, collagen peptide.

Series [3] deals with DDR2. To be noted: cited from earlier work.
For series [4], the system named is 4T1 GFP/luc cells. Kind of series: Lung colonization after tail vein injection of 4T1 GFP/luc cells in BALB/cJ mice. In kind it is in vivo, mouse. As to conditions: treated daily, 7 d.
Series [5] concerns the molecule itself.
Series [6] concerns the molecule itself. Kind of series: cross-linking.
Series [7] deals with the molecule itself. Kind of series: SEC.

Residue numbers refer to the chain shown, from its start. Names and notes keep the numbering of the source. Like-named read-outs stand apart in the source and are kept apart here. *1 amine or outer side, *2 acyl side, *3 side chain or, on linkers, in order; H or OH if unused. Where a SMILES comes first, the peptide text is derived from it. Bridges are numbered along the chain shown (N, C = ends). Roman numbers before positions name the chains, in order. [ ]: non-standard residue; d: D form. Actinocin(9to1) = Cc1c2oc3c(C)ccc(C(=O)[*:1])c3nc-2c(C(=O)[*:2])c(N)c1=O; NMeV = CN[C@H](C(=O)O)C(C)C; Sar = CNCC(=O)O

As for `Cc1c2oc3c(C)ccc(C(=O)N[C@@H]4C(=O)N[C@H](C(C)C)C(=O)N5CCC[C@H]5C(=O)N(C)CC(=O)N(C)[C@@H](C(C)C)C(=O)O[C@@H]4C)c3nc-2c(C(=O)N[C@@H]2C(=O)N[C@H](C(C)C)C(=O)N3CCC[C@H]3C(=O)N(C)CC(=O)N(C)[C@@H](C(C)C)C(=O)O[C@@H]2C)c(N)c1=O` [actinomycin D] (I: T[dV]P[Sar][NMeV] / II: T[dV]P[Sar][NMeV]; ester I:1-I:C, II:1-II:C; linker I:N-II:N via Actinocin(9to1)), the toxicity profile result in series [1] is given as “high toxicity profile”. Moreover, the “DDR2 inhibition in ECD solid-phase binding assay (in words)” value in series [2] was “inhibits DDR2”. Also, the “DDR2 inhibition in previous in vitro screen” value in series [3] was “weak inhibitor”.

`Nc1c(C(=O)O)c2nc3c(C(=O)O)cccc3oc-2cc1=O` [cinnabarinic acid]: the “lung colonization by 4T1 GFP/luc cells” value in series [4] was “no effect”. Moreover, the “DDR2 inhibition in ECD solid-phase binding assay (in words)” value in series [2] was “inactive”.

B1: DDR2 F96A/T98A expressed as a full-length receptor in HEK293 cells (receptor, UniProt Q16832 22-855, looked up)
chain: KAQVNPAICRYPLGMSGGQIPDEDITASSQWSESTAAKYGRLDSEEGDGAWCPEIPVEPDDLKEFLQIDLHTLHAIALVGTQGRHAGGHGIEFAPMYKINYSRDGTRWISWRNRHGKQVLDGNSNPYDIFLKDLEPPIVARFVRFIPVTDHSMNVCMRVELYGCVWLDGLVSYNAPAGQQFVLPGGSIIYLNDSVYDGAVGYSMTEGLGQLTDGVSGLDDFTQTHEYHVWPGYDYVGWRNESATNGYIEIMFEFDRIRNFTTMKVHCNNMFAKGVKIFKEVQCYFRSEASEWEPNAISFPLVLDDVNPSARFVTVPLHHRMASAIKCQYHFADTWMMFSEITFQSDAAMYNNSEALPTSPMAPTTYDPMLKVDDSNTRILIGCLVAIIFILLAIIVIILWRQFWQKMLEKASRRMLDDEMTVSLSLPSDSSMFNNNRSSSPSEQGSNSTYDRIFPLRPDYQEPSRLIRKLPEFAPGEEESGCSGVVKPVQPSGPEGVPHYAEADIVNLQGVTGGNTYSVPAVTMDLLSGKDVAVEEFPRKLLTFKEKLGEGQFGEVHLCEVEGMEKFKDKDFALDVSANQPVLVAVKMLRADANKNARNDFLKEIKIMSRLKDPNIIHLLAVCITDDPLCMITEYMENGDLNQFLSRHEPPNSSSSDVRTVSYTNLKFMATQIASGMKYLSSLNFVHRDLATRNCLVGKNYTIKIADFGMSRNLYSGDYYRIQGRAVLPIRWMSWESILLGKFTTASDVWAFGVTLWETFTFCQEQPYSQLSDEQVIENTGEFFRDQGRQTYLPQPAICPDSVYKLMLSCWRRDTKNRPSFQEIHLLLLQQGDE
For the molecule B1, the stoichiometry N (usually a count of units in the complex or per binding partner) in series [5] amounted to 2.

B2: full-length DDR2 expressed in HEK293 cells (receptor, UniProt Q16832 22-855, looked up)
chain: B1 chain with A75F, A77T
For the molecule B2, the “stoichiometry N” value in series [6] stood at 2.

B3: DDR2 F96A/T98A double mutant ECD, His-tagged (domain or fragment, UniProt Q16832 22-399, looked up)
chain: KAQVNPAICRYPLGMSGGQIPDEDITASSQWSESTAAKYGRLDSEEGDGAWCPEIPVEPDDLKEFLQIDLHTLHAIALVGTQGRHAGGHGIEFAPMYKINYSRDGTRWISWRNRHGKQVLDGNSNPYDIFLKDLEPPIVARFVRFIPVTDHSMNVCMRVELYGCVWLDGLVSYNAPAGQQFVLPGGSIIYLNDSVYDGAVGYSMTEGLGQLTDGVSGLDDFTQTHEYHVWPGYDYVGWRNESATNGYIEIMFEFDRIRNFTTMKVHCNNMFAKGVKIFKEVQCYFRSEASEWEPNAISFPLVLDDVNPSARFVTVPLHHRMASAIKCQYHFADTWMMFSEITFQSDAAMYNNSEALPTSPMAPTTYDPMLKVDDSNTR
Consider B3, for which the “stoichiometry N” value in series [7] was found to be 2.
